Where two headings read alike, the source gives them in different places.
Assays:
[1] = biological target: His-tagged KRAS G12D protein (Homo sapiens (Human), UniProt P01116, G12D); assay: KRAS G12D TR-FRET Assay; format: binding; conditions: biotinylated KRPep-2d, 10 μM GDP
Description: Compounds of interest were prepared in a dose-response titration in DMSO, and 80 nL were added via Labcyte Echo to each well of a 384-well plate (Perkin Elmer 6008280). The His-tagged KRAS G12D protein (Amgen) was diluted to 20 nM in Assay Buffer (20 mM HEPES, pH 7.4, 10 mM MgCl2, 50 mM NaCl, 0.1% BSA, 0.01% Tween-20, 10 μM GDP) and 2 μL was added to the appropriate wells of the 384-well plate. The plate was incubated for 30 minutes at rt. Biotinylated KRPep-2d substrate (Amgen) was diluted to […] in Assay Buffer and 2 AL was added to all wells and incubated for 1 hour at room temperature. Detection Reagent (0.4 nM LANCE Eu-W1024 Anti-6×His (Perkin Elmer AD0401), 5 nM streptavidin-d2 (Cisbio 610SADLA)) was prepared in Assay Buffer, then 4 AL was added to the plate and incubated for 1 h at rt. Plates were read using PerkinElmer En Vision (ex: 320 nm, em1: 665 nm, em2: 615 nm) and em1/em2 data was used to generate curve fits using a 4-parameter logistic model to calculate IC50 values.

[2] = biological target: GDP-bound KRAS protein (aa 1-169), G12D and C118A; SOS-mediated nucleotide exchange (Homo sapiens (Human), UniProt P01116, C118A/G12D); assay: KRAS G12D Coupled Nucleotide Exchange Assay; format: biochemical; conditions: 2 h compound pre-incubation, GTP, cRAF AlphaScreen
Description: Purified GDP-bound KRAS protein (aa 1-169), containing both G12D and C118A amino acid substitutions and an N-terminal His-tag, was pre-incubated in assay buffer (25 mM HEPES pH 7.4, 10 mM MgCl2, and 0.01% Triton X-100) with a compound dose-response titration for 2 h. Following compound pre-incubation, purified SOS protein (aa 564-1049) and GTP (Roche 10106399001) were added to the assay wells and incubated for an additional 30 min. […] The assay plates were then read on a PerkinElmer En Vision Multilabel Reader, using AlphaScreen® technology, and data were analyzed using a 4-parameter logistic model to calculate IC50 values.

[3] = tested on: Phosphorylation of ERK1/2 in AsPC-1 cells; assay: Phospho-ERK1/2 MSD Assay; format: cell-based
Description: AsPC-1 (ATCC® CRL-1682TM) cells were cultured in RPMI 1640 Medium (ThermoFisher Scientific 11875093) containing 10% fetal bovine serum (ThermoFisher Scientific 16000044) and 1× penicillin-streptomycin-glutamine (ThermoFisher Scientific 10378016). Sixteen hours prior to compound treatment, AsPC-1 cells were seeded in 96-well cell culture plates at a density of 25,000 cells/well and incubated at 37° C., 5% CO2. A compound dose-response titration was diluted in growth media, added to appropriate wells of a cell culture plate, and then incubated at 37° C., 5% CO2 for 2 hours. Following compound treatment, cells were washed with ice-cold Dulbecco's phosphate-buffered saline, no Ca^2+ or Mg^2+ (ThermoFisher Scientific 14190144), and then lysed in RIPA buffer (50 mM Tris-HCl pH 7.5, 1% Igepal, 0.5% sodium deoxycholate, 150 mM NaCl, and 0.5% sodium dodecyl sulfate) containing protease inhibitors (Roche 4693132001) and phosphatase inhibitors (Roche 4906837001). Phosphorylation of ERK1/2 in compound-treated lysates was assayed using Phospho-ERK1/2 Whole Cell Lysate kits (Meso Scale Discovery K151DWD) according to the manufacturer's protocol. Assay plates were read on a Meso Scale Discovery Sector Imager 6000, and data were analyzed using a 4-parameter logistic model to calculate IC50 values.

[4] = Homo sapiens, ASPC1, 2 h, read-out: 2 h p-ERK (AsPC-1 cells), IC50 (μM), AsPC-1 cells, 2 h compound treatment

Chain of GDP-bound KRAS protein (aa 1-169), G12D and C118A; SOS-mediated nucleotide exchange (P01116 other isoform, or with tags, fused parts or gaps G12D/C118A): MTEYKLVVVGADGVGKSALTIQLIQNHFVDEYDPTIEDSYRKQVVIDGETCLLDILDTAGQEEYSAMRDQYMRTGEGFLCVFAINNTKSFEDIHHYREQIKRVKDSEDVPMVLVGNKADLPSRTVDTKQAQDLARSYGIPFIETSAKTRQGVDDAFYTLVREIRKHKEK
Chain of His-tagged KRAS G12D protein (P01116-2 other isoform, or with tags, fused parts or gaps G12D): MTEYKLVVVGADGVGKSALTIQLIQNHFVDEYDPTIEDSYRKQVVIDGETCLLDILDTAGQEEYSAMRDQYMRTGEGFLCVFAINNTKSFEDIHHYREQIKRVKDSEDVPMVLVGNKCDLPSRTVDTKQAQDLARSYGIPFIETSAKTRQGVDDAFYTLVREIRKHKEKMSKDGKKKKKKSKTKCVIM

Row | SMILES | IC50 [1] | IC50 [2] | IC50 [3, 4] | IC50 ([3]; read-out: 2 h p-ERK (AsPC-1 cells), IC50, AsPC-1 cells, 2 h compound treatment)
1 | N#CC[C@@H]1CCCN1c1nc(OC[C@@]23CCCN2C[C@H](F)C3)nc2c(F)c(-c3ccc(F)c4sc(N)c(C#N)c34)c(Cl)cc12 [Example 50, 2-Amino-4-(6-chloro-4-((S)-2-(cyanomethyl)pyrrolidin-1-yl)-8-fluoro-2-(((2R,7aS)-2-fluorotetrahydro-1H-pyrrolizin-7a(5H)-yl)methoxy)quinazolin-7-yl)-7-fluorobenzo[b] thiophene-3-carbonitrile] | 7 nM | 7 nM | 0.307 µM | –
2 | N#Cc1c(N)sc2c(F)ccc(-c3c(Cl)cc4c(N5CCOCC(F)C5)nc(OC[C@@]56CCCN5C[C@H](F)C6)nc4c3F)c12 (single isomer, unassigned) [Example 59] | 5 nM | 2 nM | – | 0.062 µM
3 | N#Cc1c(N)sc2c(F)ccc(-c3c(Cl)cc4c(N5CCCC6(CC(O)C6)C5)nc(OC[C@@]56CCCN5C[C@H](F)C6)nc4c3F)c12 (stereo partly drawn) [Example 64, 2-Amino-4-(6-chloro-8-fluoro-2-(((2R,7aS)-2-fluorotetrahydro-1H-pyrrolizin-7a(5H)-yl)methoxy)-4-(2-hydroxy-6-azaspiro[3.5]nonan-6-yl)quinazolin-7-yl)-7-fluorobenzo[b]thiophene-3-carbonitrile] | 25 nM | 28 nM | 1.52 µM | –
4 | N#Cc1c(N)sc2c(F)ccc(-c3c(Cl)cc4c(C5CC5)nc(OC[C@@]56CCCN5C[C@H](F)C6)nc4c3F)c12 [Example 71, 2-Amino-4-(6-chloro-4-cyclopropyl-8-fluoro-2-(((2R,7aS)-2-fluorotetrahydro-1H-pyrrolizin-7a(5H)-yl)methoxy)quinazolin-7-yl)-7-fluorobenzo[b]thiophene-3-carbonitrile bis(2,2,2-trifluoroacetate)] | 11 nM | 5 nM | 0.185 µM | –
5 | N#Cc1c(N)sc2c(F)ccc(-c3c(Cl)cc4c(N5CCC[C@@H](S(N)(=O)=O)C5)nc(OC[C@@]56CCCN5C[C@H](F)C6)nc4c3F)c12 [Example 12, (3R)-1-(7-(2-Amino-3-cyano-7-fluorobenzo[b]thiophen-4-yl)-6-chloro-8-fluoro-2-(((2R,7aS)-2-fluorotetrahydro-1H-pyrrolizin-7a(5H)-yl)methoxy)quinazolin-4-yl)piperidine-3-sulfonamide] | 6 nM | 6 nM | 1.81 µM | –
6 | CCC1(O)CCCN(c2nc(OC[C@@]34CCCN3C[C@H](F)C4)nc3c(F)c(-c4ccc(F)c5sc(N)c(C#N)c45)c(Cl)cc23)C1 (stereo partly drawn) [Example 37, 2-Amino-4-(6-chloro-4-(3-ethyl-3-hydroxypiperidin-1-yl)-8-fluoro-2-(((2R,7aS)-2-fluorotetrahydro-1H-pyrrolizin-7a(5H)-yl)methoxy)quinazolin-7-yl)-7-fluorobenzo[b] thiophone-3-carbonitrile] | 8 nM | 10 nM | 0.859 µM | –
7 | N#Cc1c(N)sc2c(F)ccc(-c3c(Cl)cc4c(N5CCCC6(CC(=O)N6)C5)nc(OC[C@@]56CCCN5C[C@H](F)C6)nc4c3F)c12 (stereo partly drawn) [Example 13, 2-Amino-4-(6-chloro-8-fluoro-2-(((2R,7aS)-2-fluorotetrahydro-1H-pyrrolizin1 7a(5H)-yl)methoxy)-4-(2-oxo-1,6-diazaspiro[3.5]nonan-6-yl)quinazolin-7-yl)-7-fluorobenzo[b] thiophene-3-carbonitrile] | 5 nM | 5 nM | 2.21 µM | –
8 | N#Cc1c(N)sc2c(F)ccc(-c3c(Cl)cc4c(N5CCC[C@H]5CO)nc(OC[C@@]56CCCN5C[C@H](F)C6)nc4c3F)c12 [Example 49, 2-Amino-4-(6-chloro-8-fluoro-2-(((2R,7aS)-2-fluorotetrahydro-1H-pyrrolizin-7a(5H)-yl)methoxy)-4-((S)-2-(hydroxymethyl)pyrrolidin-1-yl)quinazolin-7-yl)-7-fluorobenzo[b] thiophene-3-carbonitrile] | 4 nM | 4 nM | 0.252 µM | –
9 | C[C@@]1(CO)CCCN(c2nc(OC[C@@]34CCCN3C[C@H](F)C4)nc3c(F)c(-c4ccc(F)c5sc(N)c(C#N)c45)c(Cl)cc23)C1 [Example 43, 2-Amino-4-(6-chloro-8-fluoro-2-(((2R,7aS)-2-fluorotetrahydro-1H-pyrrolizin-7a(5H)-yl)methoxy)-4-((R)-3-(hydroxymethyl)-3-methylpiperidin-1-yl)quinazolin-7-yl)-7-fluorobenzo[b] thiophene-3-carbonitrile] | 15 nM | 18 nM | 1.16 µM | –

Continued by falling IC50 [1], values first:

Row | IC50 [1] | IC50 [2] | IC50 [3, 4] | IC50 ([3]; read-out: 2 h p-ERK (AsPC-1 cells), IC50, AsPC-1 cells, 2 h compound treatment) | SMILES
10 | 4 nM | 4 nM | 0.729 µM | – | CS(=O)(=O)N1CC2(CCCN(c3nc(OC[C@@]45CCCN4C[C@H](F)C5)nc4c(F)c(-c5ccc(F)c6sc(N)c(C#N)c56)c(Cl)cc34)C2)C1 [Example 14]
11 | 3 nM | 1 nM | 0.078 µM | – | N#Cc1c(N)sc2c(F)ccc(-c3c(Cl)cc4c(N5CCOCC(F)C5)nc(OC[C@@]56CCCN5C[C@H](F)C6)nc4c3F)c12 (single isomer, unassigned) [Example 58]
12 | 3 nM | 3 nM | 0.285 µM | – | N#Cc1c(N)sc2c(F)ccc(-c3c(Cl)cc4c(N5CC6COC(C6)C5)nc(OC[C@@]56CCCN5C[C@H](F)C6)nc4c3F)c12 (stereo partly drawn) [Example 33, 4-(4-(6-Oxa-3-azabicyclo[3.2.1]octan-3-yl)-6-chloro-8-fluoro-2-(((2R,7aS)-2-fluorotetrahydro-1H-pyrrolizin-7a(5H)-yl)methoxy)quinazolin-7-yl)-2-amino-7-fluorobenzo[b] thiophene-3-carbonitrile]
13 | 3 nM | 4 nM | 0.288 µM | – | C[C@@]1(O)CCCN(c2nc(OC[C@@]34CCCN3C[C@H](F)C4)nc3c(F)c(-c4ccc(F)c5sc(N)c(C#N)c45)c(Cl)cc23)C1 [Example 41, 2-Amino-4-(6-chloro-8-fluoro-2-(((2R,7aS)-2-fluorotetrahydro-1H-pyrrolizin-7a(5H)-yl)methoxy)-4-((R)-3-hydroxy-3-methylpiperidin-1-yl)quinazolin-7-yl)-7-fluorobenzo[b] thiophene-3-carbonitrile]
14 | 2 nM | 2 nM | 0.013 µM | – | N#Cc1c(N)sc2c(F)ccc(-c3c(Cl)cc4c(N5CCCOCCC5)nc(OC[C@@]56CCCN5C[C@H](F)C6)nc4c3F)c12 (single isomer, unassigned) [Example 18]
15 | 1 nM | 1 nM | 0.187 µM | – | N#Cc1c(N)sc2c(F)ccc(-c3c(Cl)cc4c(N5CCCCCCC5)nc(OC[C@@]56CCCN5C[C@H](F)C6)nc4c3F)c12 [Example 31, 2-Amino-4-(4-(azocan-1-yl)-6-chloro-8-fluoro-2-(((2R,7aS)-2-fluorotetrahydro-1H-pyrrolizin-7a(5H)-yl)methoxy)quinazolin-7-yl)-7-fluorobenzo[b] thiophene-3-carbonitrile]
16 | 0.4 nM | 0.8 nM | 0.212 µM | – | N#Cc1c(N)sc2c(F)ccc(-c3c(Cl)cc4c(N5CCOC[C@H](O)C5)nc(OC[C@@]56CCCN5C[C@H](F)C6)nc4c3F)c12 [Example 30, 2-Amino-4-(6-chloro-8-fluoro-2-(((2R,7aS)-2-fluorotetrahydro-1H-pyrrolizin-7a(5H)-yl)methoxy)-4-((R)-6-hydroxy-1,4-oxazepan-4-yl)quinazolin-7-yl)-7-fluorobenzo[b] thiophene-3-carbonitrile]
